Experimental findings from patent US11591288B2, “Compositions and methods for treating atherosclerotic cardiovascular disease” (GAVISH-GALILEE BIO APPLICATIONS LTD., priority 2017, dated 2023) are described below.

The test system of assay [1] is HDL. The assay can be described thus: HDL surface polarity, Laurdan General Polarization (Gp) assay. Also noted: species or system human. Conditions: HDL 100 μg/ml, lyso-DGTS 0-100 μg/ml. On the procedure: The fluorescence emission spectra of Laurdan were obtained using at excitation/emission 340/400-520 nm. The value of Gp of Laurdan was calculated using the formula: Gp=(I435−I490)/(I435+I490). Each experiment was repeated separately at least three times. *p<0.05, ***p<0.0001 related to the control (HDL without lyso-DGTS). Statistics were analyzed using T-test Graphpad prism 5 software.
HDL particles are plurimolecular, quasi-spherical or discoid, pseudomicellar complexes predominantly composed of polar lipids solubilized by apolipoproteins. In order to determine a possible interaction between lyso-DGTS and the HDL lipid core, the Laurdan General Polarization (Gp) assay was used. […] This interaction may cause a change in its physical state and lipid core polarity and thus affect its functionality.

Assay [2] deals with J774A.1 macrophages. Kind of assay: HDL-mediated cholesterol efflux from macrophage cells. The settings on record: 16.5% without lyso-DGTS. The assay is classed as cell-based, murine. As to the method: Cholesterol efflux Fluorometric Assay Kit (Cell-Based), Biovision was used to measure the effect of lyso-DGTS on HDL-cholesterol efflux.
J774.1 macrophage cells were grown in RPMI 1640 media containing 10% FBS in cell culture flask till ˜90% confluence (37° C. incubator containing 5% CO2). The cells were splitted under sterile conditions using basic cell culture techniques and plate to approximately 1×10^5 cells/well in a 96-well plate (white plate with clear bottom) using 100 μl media/well. After 2 h, the cells attached to the plates, washed with RPMI 1640 media (no serum added) and labeled with 50 μl labeling reagent and 50 μl equilibration buffer, supplied by the kit, for 16 h. 100 μl equilibration buffer alone were added to the background control for measuring background fluorescence. The cells were washed with media and treated for another 4-6 h with 100 μl of RPMI 1640 media containing HDL (25 μg protein) preincubated with lyso-DGTS at various concentrations (0, 10, 20, 50, and 100 μg/ml) for 4 h. To the negative control was added RPMI 1640 media alone.
The fluorescence of the supernatant was measured (excitation/emission=482/515 nm). The cells were solubilized adding 100 μl of Cell Lysis Buffer and shaking on a plate shaker for 30 min at room temperature, and its fluorescence was also measured.
Cholesterol efflux of the treatments was calculated by dividing the fluorescence intensity of the media by total fluorescence intensity of the cell lysate of the same treatment and media.
HDL removes cholesterol from cells, including macrophages. HDL particles were incubated with lyso-DGTS at different concentrations. The HDL ability to efflux cholesterol from J774A.1 macrophages was measured using flouromtric assay (cell-based cholesterol efflux flouromtric assay kit, supplied by Biovision) and expressed as % of cholesterol efflux. […] The cholesterol removal enhanced from 16.5% (without lyso-DGTS) to 22.5%, 31.5%, 36.5%, and 46.5% after incubation with lyso-DGTS at 10, 20, 50, and 100 μg/ml, respectively (FIG. 8).

In assay [3] the test system is J774A.1 macrophages. The assay can be described thus: APOA1-mediated cholesterol efflux from macrophage cells. The assay is classed as cell-based, murine. On the procedure: J774A.1 cells were incubated for 4 h with RPMI buffer (media), APOA1 (10 μg) preincubated with DMSO or with lyso-DGTS (at final concentration of 10, 20, 50, and 100 μg/ml) for 2 h. Fluorescence was measured in media and cells at excitation/emission 482/515 nm. The cholesterol efflux was expressed as % efflux elicited by cells. Each experiment was repeated separately at least three times. *p<0.05, ***p<0.0001 relative to the control (APOA1 incubated with DMSO; n=3). Statistical analysis by one-way ANOVA and Graphpad prism 5 software.
APOA1 was incubated with lyso-DGTS at different concentrations (0, 10, 20, 50, and 100 μg/ml), and its ability to remove cholesterol from J774A.1 macrophages was measured by fluorometric assay (cell-based Cholesterol Efflux Fluorometric Assay Kit) and expressed as % of cholesterol efflux.

The subject of assay [4] is Human umbilical vein endothelial cells (HUVECs). Kind of assay: HDL-induced endothelial NO release, DAN assay. The format is cell-based. The settings on record: HDL 50 μg/ml preincubated 3 h with 10, 20, 50 μg/ml; HUVECs 2 h. As to the method:
HUVECs were stimulated for 2 h with HDL (50 μg/ml) preincubated with DMSO, lyso-DGTS and S1P at final concentrations of 10, 20, and 50 μg/ml for 3 h. Media were then collected and treated with nitrate reductase followed by analysis using the DAN assay. Data are expressed as NO concentration (μM) released by the cells. Each experiment was repeated separately at least three times. *p<0.05, ***p<0.0001 related to the control (HDL without lyso-DGTS or S1P). Statistics were analyzed using one-way annova Graphpad prism 5 software.
Human umbilical vein endothelial cells (HUVECs) were incubated for 2 hours with HDL preincubated with different concentration of lyso-DGTS or S1P for 3 hours, and NO production determined using 2,3-diaminonapthalene (DAN) assay.

Assay [5] concerns the target T1, serum PON1 (Mus musculus, UniProt P52430).
T1 construct: from tissue; host or cells: serum of Balb/c mice
Kind of assay: Serum PON1 lactonase activity of Balb/c mice fed with high fat diet. The format is in vivo. Conditions: HFD mice, lyso-DGTS 1.43 mg/ml via s.c. osmotic mini-pump, 28 days; vs vehicle. On the procedure: Eight weeks old Balb/c mice where fed with normal rodent diet (the “non” group n=11) for 12 weeks or with high-fat diet (HFD) for 8 weeks. After 8 weeks, the HFD group was divided into two groups both treated via osmotic mini-pumps implanted subcutaneously: (1) vehicle group (the pumps contained 100 μl of DDW+2% Tween 80; n=9); (2) Lyso-DGTS group (the pumps contained 100 μl lyso-DGTS 1.4 mg/ml in DDW+2% Tween 80; n=1). The mice then continued with the same diet for another 4 weeks. The pumps injected 3.5 μl solution each day for 28 days until the end of the experiment. Blood was drawn and centrifuged at 2000 rpm for five minutes, and the serum was stored at −70° C. until the analyses. Clinical parameters were measured. Serum diluted by 20 with PBS and PON1 lactonase activity was measured using dihydrocumarine assay.
The effect of lyso-DGTS on lactonase PON1 activity was examined using Balb/c mice fed with HFD. […] At the end of the protocol, blood was withdrawn and clinical parameters and lactonase PON1 activity were measured. […] Lactonase PON1 activity of the mice serum was measured using dehydrocumarine assay.

T1 sequence (P52430 whole entry): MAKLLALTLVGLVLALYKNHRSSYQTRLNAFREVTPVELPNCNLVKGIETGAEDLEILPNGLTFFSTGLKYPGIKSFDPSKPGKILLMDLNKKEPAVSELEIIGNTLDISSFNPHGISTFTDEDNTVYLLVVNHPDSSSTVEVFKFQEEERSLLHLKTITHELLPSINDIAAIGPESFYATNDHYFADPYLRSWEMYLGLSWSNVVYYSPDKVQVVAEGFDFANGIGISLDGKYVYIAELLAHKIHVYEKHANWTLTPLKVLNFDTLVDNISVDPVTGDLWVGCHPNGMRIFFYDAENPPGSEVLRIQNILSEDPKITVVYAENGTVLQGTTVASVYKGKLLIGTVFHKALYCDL

For the compound `CC/C=C\C/C=C\C/C=C\C/C=C\C/C=C\CCCC(=O)OCC(O)COCCC(C(=O)[O-])[N+](C)(C)C` (stereo not drawn) [lyso-DGTS, lyso-diacylglyceryltrimethylhornmoserine], the “effect on HDL Gp values (Laurdan)” value in assay [1] was “significantly decreased the HDL Gp values at a dose dependent manner at 20, 50, and 100 μg/ml”. Also, the HDL-mediated cholesterol efflux worked out at 22.5% in assay [2] (HDL incubated with 10 μg/ml lyso-DGTS), 31.5% in assay [2] (HDL incubated with 20 μg/ml lyso-DGTS), 36.5% in assay [2] (HDL incubated with 50 μg/ml lyso-DGTS) and 46.5% in assay [2] (HDL incubated with 100 μg/ml lyso-DGTS). Moreover, the APOA1-mediated cholesterol efflux in assay [3] (APOA1+50 μg/ml lyso-DGTS, p<0.05) is about 25%; in assay [3] (APOA1+100 μg/ml lyso-DGTS, p<0.0001), about 35%. For the same compound, the “effect on HDL ability to induce endothelial NO release” value in assay [4] is “significantly increased the HDL ability to induce endothelial NO release at a dose dependent manner”. For the same compound, the “increase of serum lactonase PON1 activity” value in assay [5] is about 2.3 units.
